Where “and” joins values, the source holds several entries; their conditions need not be identical. Equal entries are not always repeated. Inconclusive results and toxic doses are left out.

The values that follow come from PubChem BioAssay AID330 (DTP/NCI, 2004).

The subject of this test is P388 leukemia ip, CD2F1 mice, survival T/C. Briefly: NCI In Vivo Anticancer Drug Screen. Data for tumor model P388 Leukemia (intraperitoneal) in CD2F1 (CDF1) mice. As to conditions: endpoint: median survival time, higher = longer survival. In a few lines:
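Mice carrying the transplanted tumor received test compound or vehicle. Survival was recorded in each group, and the value is the treated-group measurement divided by that of the vehicle-treated control group.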

The mark [1] stands for this setting: dose: 50.0 mg/kg/injection, schedule: Q01DX005 (ip), vehicle: Klucel (hydroxypropylcellulose) (HPC).
Setting [2] is: dose: 100.0 mg/kg/injection, schedule: Q01DX005 (ip), vehicle: Klucel (hydroxypropylcellulose) (HPC).
[3] abbreviates: dose: 200.0 mg/kg/injection, schedule: Q01DX005 (ip), vehicle: Klucel (hydroxypropylcellulose) (HPC).
[4] abbreviates: dose: 50.0 mg/kg/injection, schedule: Q01DX009 (ip), vehicle: saline with Tween-80.
Setting [5] is: dose: 100.0 mg/kg/injection, schedule: Q01DX009 (ip), vehicle: saline with Tween-80.
[6] abbreviates: dose: 200.0 mg/kg/injection, schedule: Q01DX009 (ip), vehicle: saline with Tween-80.

Consider `CCC[P+](CCC)(CCC)CCCCCCCCCC[P+](CCC)(CCC)CCC`, for which the T/C (dose: 0.19 mg/kg/injection, schedule: Q01DX009 (ip), vehicle: saline) is 106 % of control; the T/C (dose: 0.39 mg/kg/injection, schedule: Q01DX009 (ip), vehicle: saline) was 100 % of control; the T/C (dose: 0.79 mg/kg/injection, schedule: Q01DX009 (ip), vehicle: saline) was 88 % of control.

Take `O=C1CCCc2cc3c(nc21)C(=O)CCC3`: the T/C under setting [1] was 100 % of control, the T/C under setting [2] is 100 % of control and the T/C under setting [3] was 109 % of control.

As for `C(=Nc1cccc2ccccc12)Nc1cccc2ccccc12.[Cu+2]`, the T/C runs as follows: under setting [4], 96 % of control; under setting [5], 98 % of control; under setting [6], 95 % of control.

For the compound `OCC1NCCC(O)C1OC1OC(CO)C(O)C(O)C1O` (configuration not stated), the T/C (dose: 6.88 mg/kg/injection, schedule: Q01DX005 (ip), vehicle: water) was 103 % of control; the T/C (dose: 13.75 mg/kg/injection, schedule: Q01DX005 (ip), vehicle: water) was 100 % of control; the T/C (dose: 27.5 mg/kg/injection, schedule: Q01DX005 (ip), vehicle: water) is 100 % of control; the T/C (dose: 55.0 mg/kg/injection, schedule: Q01DX005 (ip), vehicle: water) was 99 % of control.

With `CCCCCCCCCCCCCCCCCC(=O)NCNC(=O)CCCCCCCCCCCCCCCCC`, the T/C was 100 % of control (dose: 4.68 mg/kg/injection, schedule: Q01DX009 (ip), vehicle: saline with Tween-80); 100 % of control (dose: 9.37 mg/kg/injection, schedule: Q01DX009 (ip), vehicle: saline with Tween-80); 100 % of control (dose: 9.37 mg/kg/injection, schedule: Q04DX003 (ip), vehicle: saline); 90 % of control (dose: 18.75 mg/kg/injection, schedule: Q01DX009 (ip), vehicle: saline with Tween-80); 95 % of control (dose: 18.75 mg/kg/injection, schedule: Q04DX003 (ip), vehicle: saline).

For `CC/C(=C(/CC)c1ccc(OCC(=O)N/N=C2\CCC3C4CCc5cc(O)ccc5C4CCC23C)cc1)c1ccc(OCC(=O)N/N=C2/CCC3C4CCc5cc(O)ccc5C4CCC23C)cc1` (configuration not stated), the T/C was 100 % of control (dose: 3.12 mg/kg/injection, schedule: Q01DX001 (ip), vehicle: Klucel (hydroxypropylcellulose) (HPC)); 102 % of control (dose: 6.25 mg/kg/injection, schedule: Q01DX001 (ip), vehicle: Klucel (hydroxypropylcellulose) (HPC)); 97 % of control (dose: 12.5 mg/kg/injection, schedule: Q01DX001 (ip), vehicle: Klucel (hydroxypropylcellulose) (HPC)); 91 % of control (dose: 50.0 mg/kg/injection, schedule: Q01DX001 (ip), vehicle: Klucel (hydroxypropylcellulose) (HPC)); 87 % of control (dose: 200.0 mg/kg/injection, schedule: Q01DX001 (ip), vehicle: Klucel (hydroxypropylcellulose) (HPC)).

As for `CCOC(OCC)c1c(Cl)cccc1Cl`, the T/C reads like this: under setting [5], 118 % of control; (dose: 100.0 mg/kg/injection, schedule: Q04DX003 (ip), vehicle: saline with Tween-80) 100 % of control; under setting [6], 118 % of control; (dose: 200.0 mg/kg/injection, schedule: Q04DX003 (ip), vehicle: saline with Tween-80) 100 % of control; (dose: 400.0 mg/kg/injection, schedule: Q04DX003 (ip), vehicle: saline with Tween-80) 90 % of control.

Consider `CC(C)CC(NC(=O)C(N)Cc1ccc(N(CCCl)CCCl)cc1)C(=O)O` (configuration not stated), for which the T/C is, setting by setting: (dose: 3.7 mg/kg/injection, schedule: Q04DX003 (ip), vehicle: saline with Tween-80) 155 % of control and 172 % of control; (dose: 8.4 mg/kg/injection, schedule: Q04DX003 (ip), vehicle: saline with Tween-80) 187 % of control and 203 % of control; (dose: 12.6 mg/kg/injection, schedule: Q04DX003 (ip), vehicle: saline with Tween-80) 204 % of control and 272 % of control; (dose: 18.9 mg/kg/injection, schedule: Q04DX003 (ip), vehicle: saline with Tween-80) 108 % of control and 118 % of control; (dose: 32.0 mg/kg/injection, schedule: Q04DX003 (ip), vehicle: saline with Tween-80) 158 % of control; (dose: 42.6 mg/kg/injection, schedule: Q04DX003 (ip), vehicle: saline with Tween-80) 179 % of control. Also, the T/C (dose: 64.0 mg/kg/injection, schedule: Q04DX003 (ip), vehicle: saline with Tween-80) was 190 % of control and 198 % of control; the T/C (dose: 96.0 mg/kg/injection, schedule: Q04DX003 (ip), vehicle: saline with Tween-80) was 243 % of control; the T/C (dose: 128.0 mg/kg/injection, schedule: Q04DX003 (ip), vehicle: saline with Tween-80) was 88 % of control.

Regarding `COc1ccc(C(=O)CCS(=O)(=O)CCC(=O)c2ccc(OC)cc2)cc1`, the T/C is 93 % of control (dose: 100.0 mg/kg/injection, schedule: Q04DX003 (ip), vehicle: saline); 91 % of control (dose: 200.0 mg/kg/injection, schedule: Q04DX003 (ip), vehicle: saline); 91 % of control (dose: 400.0 mg/kg/injection, schedule: Q04DX003 (ip), vehicle: saline).

With `CO[C@@]1([C@@H](Cl)c2ccccc2)C(=O)N(C)/C(=C\c2ccccc2)C(=O)N1C`, the T/C is 105 % of control (dose: 60.0 mg/kg/injection, schedule: Q01DX005 (ip), vehicle: Klucel (hydroxypropylcellulose) (HPC)); 92 % of control (dose: 120.0 mg/kg/injection, schedule: Q01DX005 (ip), vehicle: Klucel (hydroxypropylcellulose) (HPC)); 97 % of control (dose: 240.0 mg/kg/injection, schedule: Q01DX005 (ip), vehicle: Klucel (hydroxypropylcellulose) (HPC)).

Consider `CNC(=O)OCc1c2ccncc2c(C)c2c1[nH]c1ccccc12`, for which the T/C (dose: 6.25 mg/kg/injection, schedule: Q04DX002 (ip), vehicle: saline with Tween-80) is 163 % of control; the T/C (dose: 12.5 mg/kg/injection, schedule: Q04DX002 (ip), vehicle: saline with Tween-80) was 150 % of control; the T/C (dose: 25.0 mg/kg/injection, schedule: Q04DX002 (ip), vehicle: saline with Tween-80) is 153 % of control and 167 % of control; the T/C (dose: 50.0 mg/kg/injection, schedule: Q04DX002 (ip), vehicle: saline with Tween-80) was 109 % of control.

In the case of `C=CCC(O)C(=O)OC1CC(C)CCC1C(C)(C)c1ccccc1` (configuration not stated), the T/C runs as follows: (dose: 60.0 mg/kg/injection, schedule: Q01DX005 (ip), vehicle: saline with Tween-80) 106 % of control; (dose: 120.0 mg/kg/injection, schedule: Q01DX005 (ip), vehicle: saline with Tween-80) 100 % of control; (dose: 240.0 mg/kg/injection, schedule: Q01DX005 (ip), vehicle: saline with Tween-80) 107 % of control.

For `N#CC(C#N)=NNc1ccc2cn[nH]c2c1`, the T/C (dose: 12.5 mg/kg/injection, schedule: Q01DX005 (ip), vehicle: Klucel (hydroxypropylcellulose) (HPC)) was 101 % of control; the T/C (dose: 25.0 mg/kg/injection, schedule: Q01DX005 (ip), vehicle: Klucel (hydroxypropylcellulose) (HPC)) was 105 % of control and 107 % of control; the T/C under setting [1] is 116 % of control and 119 % of control and 120 % of control.

Take `NC(=O)CCC(NS(=O)(=O)c1ccc(NC(=O)c2ccc(Cl)cc2)cc1)C(=O)O` (configuration not stated): the T/C reads like this: under setting [1], 104 % of control; under setting [2], 102 % of control; under setting [3], 102 % of control.

Turning to `CCCCCCCCCCCC1=C(O)C(=O)C(Cl)=C(O)C1=O`, the T/C runs as follows: (dose: 12.5 mg/kg/injection, schedule: Q01DX005 (ip), vehicle: saline with Tween-80) 98 % of control; (dose: 25.0 mg/kg/injection, schedule: Q01DX005 (ip), vehicle: saline with Tween-80) 97 % of control; (dose: 50.0 mg/kg/injection, schedule: Q01DX005 (ip), vehicle: saline with Tween-80) 102 % of control and 90 % of control.

For the compound `Nc1nc2c(s1)CCC2`, the T/C by setting is: under setting [4], 118 % of control; under setting [5], 104 % of control; under setting [6], 93 % of control.
